Measured values: ChEMBL document CHEMBL1201862, “PubChem BioAssay data set” (2004)
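Protocol summary: plate cells (96-well), add compound at 5 concentrations, incubate 48 h, interpolate endpoints linearly. Abbreviation: GI50, concentration required for 50% inhibition of growth.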 Active and inactive are the calls of the source. Rule as the data show it: active = GI50 up to about 1.1 µM and inactive = higher.

Tests used:
Experiment in all cases: inhibition of tumour cell growth, NCI panel, 48 h
786-0 = system: 786-0
A498 = system: A498
A549 = system: A549
ACHN = system: ACHN
BT-549 = system: BT-549
CAKI-1 = system: CAKI-1
CCRF-CEM = system: CCRF-CEM
COLO 205 = system: COLO 205
DU-145 = system: DU-145
EKVX = system: EKVX
HCC 2998 = system: HCC 2998
HCT-116 = system: HCT-116
HCT-15 = system: HCT-15
HL-60 = system: HL-60
HOP-62 = system: HOP-62
HOP-92 = system: HOP-92
HT-29 = system: HT-29
Hs-578T = system: Hs-578T
IGROV-1 = system: IGROV-1
K562 = system: K562
KM12 = system: KM12
LOX IMVI = system: LOX IMVI
M14 = system: M14
MCF7 = system: MCF7
MDA-MB-231 = system: MDA-MB-231
MDA-MB-435 = system: MDA-MB-435
MDA-N = system: MDA-N
MOLT-4 = system: MOLT-4
Malme-3M = system: Malme-3M
NCI-H226 = system: NCI-H226
NCI-H23 = system: NCI-H23
NCI-H460 = system: NCI-H460
NCI-H522 = system: NCI-H522
NCI/ADR-RES = system: NCI/ADR-RES
OVCAR-3 = system: OVCAR-3
OVCAR-4 = system: OVCAR-4
OVCAR-5 = system: OVCAR-5
OVCAR-8 = system: OVCAR-8
PC-3 = system: PC-3
RPMI-8226 = system: RPMI-8226
RXF 393 = system: RXF 393
SF-268 = system: SF-268
SF-295 = system: SF-295
SF-539 = system: SF-539
SK-MEL-28 = system: SK-MEL-28
SK-MEL-2 = system: SK-MEL-2
SK-MEL-5 = system: SK-MEL-5
SK-OV-3 = system: SK-OV-3
SN12C = system: SN12C
SNB-19 = system: SNB-19
SNB-75 = system: SNB-75
SR = system: SR
SW-620 = system: SW-620
T47D = system: T47D
TK-10 = system: TK-10
U-251 = system: U-251
UACC-257 = system: UACC-257
UACC-62 = system: UACC-62
UO-31 = system: UO-31
DMS-273 = system: DMS-273
KM-20L2 = system: KM-20L2
LXFL 529 = system: LXFL 529
SNB-78 = system: SNB-78
DLD-1 = system: DLD-1
DMS-114 = system: DMS-114

## Cc1c(C)n(-c2ccccc2)c2nc([S+](C)[O-])nc([S+](C)[O-])c12 (stereo not given)
786-0
  GI50: 2.56 µM (inactive)
A498
  GI50: 13.1 µM (inactive)
A549
  GI50: 16.6 µM (inactive)
ACHN
  GI50: 5.83 µM (inactive)
BT-549
  GI50: 0.755 µM (active)
CAKI-1
  GI50: 1.34 µM (inactive)
CCRF-CEM
  GI50: 1.55 µM (inactive)
COLO 205
  GI50: 1.75 µM (inactive)
DU-145
  GI50: 14.4 µM (inactive)
EKVX
  GI50: 6.92 µM (inactive)
HCC 2998
  GI50: 15.2 µM (inactive)
HCT-116
  GI50: 2.14 µM (inactive)
HCT-15
  GI50: 5 µM
HL-60
  GI50: 1.38 µM (inactive)
HOP-62
  GI50: 18.4 µM (inactive)
HOP-92
  GI50: 1.96 µM (inactive)
HT-29
  GI50: 6.05 µM (inactive)
Hs-578T
  GI50: 25.5 µM (inactive)
IGROV-1
  GI50: 3.79 µM (inactive)
K562
  GI50: 2.09 µM (inactive)
KM12
  GI50: 13.3 µM (inactive)
LOX IMVI
  GI50: 1.81 µM (inactive)
M14
  GI50: 2.21 µM (inactive)
MCF7
  GI50: 2.16 µM (inactive)
MDA-MB-231
  GI50: 4.74 µM (inactive)
MDA-MB-435
  GI50: 3.1 µM (inactive)
MDA-N
  GI50: 3.68 µM (inactive)
MOLT-4
  GI50: 2.33 µM (inactive)
Malme-3M
  GI50: 1.98 µM (inactive)
NCI-H226
  GI50: 17.9 µM (inactive)
NCI-H23
  GI50: 13.9 µM (inactive)
NCI-H460
  GI50: 18.8 µM (inactive)
NCI-H522
  GI50: 1.89 µM (inactive)
NCI/ADR-RES
  GI50: 22.9 µM (inactive)
OVCAR-3
  GI50: 2.61 µM (inactive)
OVCAR-4
  GI50: 4.85 µM (inactive)
OVCAR-5
  GI50: 15.3 µM (inactive)
OVCAR-8
  GI50: 4.09 µM (inactive)
PC-3
  GI50: 7 µM (inactive)
RPMI-8226
  GI50: 1.66 µM (inactive)
RXF 393
  GI50: 2.92 µM (inactive)
SF-268
  GI50: 7.14 µM (inactive)
SF-295
  GI50: 17.6 µM (inactive)
SF-539
  GI50: 3.85 µM (inactive)
SK-MEL-28
  GI50: 4.15 µM (inactive)
SK-MEL-2
  GI50: 4.68 µM (inactive)
SK-MEL-5
  GI50: 2.35 µM (inactive)
SK-OV-3
  GI50: 18.5 µM (inactive)
SN12C
  GI50: 8.28 µM (inactive)
SNB-19
  GI50: 17.1 µM (inactive)
SNB-75
  GI50: 9.1 µM (inactive)
SR
  GI50: 0.809 µM (active)
SW-620
  GI50: 1.79 µM (inactive)
T47D
  GI50: 2.44 µM (inactive)
TK-10
  GI50: 1.52 µM (inactive)
U-251
  GI50: 8.53 µM (inactive)
UACC-257
  GI50: 11.8 µM (inactive)
UACC-62
  GI50: 6.03 µM (inactive)
UO-31
  GI50: 7.74 µM (inactive)

## Cc1cc(=O)n2c(cc3cccccc32)n1
786-0
  GI50: > 100 µM (inactive)
A498
  GI50: > 100 µM (inactive)
A549
  GI50: > 100 µM (inactive)
ACHN
  GI50: > 100 µM (inactive)
CAKI-1
  GI50: > 100 µM (inactive)
CCRF-CEM
  GI50: > 100 µM (inactive)
COLO 205
  GI50: > 100 µM (inactive)
DMS-273
  GI50: > 100 µM (inactive)
EKVX
  GI50: > 100 µM (inactive)
HCC 2998
  GI50: > 100 µM (inactive)
HCT-15
  GI50: > 100 µM
HL-60
  GI50: > 100 µM (inactive)
HOP-62
  GI50: > 100 µM (inactive)
HT-29
  GI50: > 100 µM (inactive)
IGROV-1
  GI50: > 100 µM (inactive)
K562
  GI50: > 100 µM (inactive)
KM-20L2
  GI50: > 100 µM (inactive)
KM12
  GI50: > 100 µM (inactive)
LOX IMVI
  GI50: > 100 µM (inactive)
LXFL 529
  GI50: > 100 µM (inactive)
M14
  GI50: > 100 µM (inactive)
MOLT-4
  GI50: > 100 µM (inactive)
NCI-H226
  GI50: > 100 µM (inactive)
NCI-H23
  GI50: > 100 µM (inactive)
NCI-H460
  GI50: > 100 µM (inactive)
NCI-H522
  GI50: > 100 µM (inactive)
OVCAR-3
  GI50: > 100 µM (inactive)
OVCAR-4
  GI50: > 100 µM (inactive)
OVCAR-5
  GI50: > 100 µM (inactive)
OVCAR-8
  GI50: > 100 µM (inactive)
RPMI-8226
  GI50: > 100 µM (inactive)
RXF 393
  GI50: > 100 µM (inactive)
SF-268
  GI50: > 100 µM (inactive)
SF-295
  GI50: > 100 µM (inactive)
SF-539
  GI50: > 100 µM (inactive)
SK-MEL-28
  GI50: > 100 µM (inactive)
SK-MEL-2
  GI50: > 100 µM (inactive)
SN12C
  GI50: > 100 µM (inactive)
SNB-19
  GI50: > 100 µM (inactive)
SNB-75
  GI50: > 100 µM (inactive)
SNB-78
  GI50: > 100 µM (inactive)
SR
  GI50: > 100 µM (inactive)
SW-620
  GI50: > 100 µM (inactive)
TK-10
  GI50: > 100 µM (inactive)
U-251
  GI50: > 100 µM (inactive)
UACC-257
  GI50: > 100 µM (inactive)
UACC-62
  GI50: > 100 µM (inactive)
UO-31
  GI50: > 100 µM (inactive)

## CCOC(=O)c1ccc(NC(=O)SCCC(=O)O)cc1
786-0
  GI50: > 100 µM (inactive)
A498
  GI50: > 100 µM (inactive)
A549
  GI50: > 100 µM (inactive)
ACHN
  GI50: 51.1 µM (inactive)
CCRF-CEM
  GI50: > 100 µM (inactive)
COLO 205
  GI50: > 100 µM (inactive)
DLD-1
  GI50: > 100 µM (inactive)
DMS-114
  GI50: > 100 µM (inactive)
DMS-273
  GI50: > 100 µM (inactive)
EKVX
  GI50: 0.841 µM (active)
HCC 2998
  GI50: > 100 µM (inactive)
HCT-116
  GI50: > 100 µM (inactive)
HCT-15
  GI50: > 100 µM
HL-60
  GI50: > 100 µM (inactive)
HOP-62
  GI50: > 100 µM (inactive)
HT-29
  GI50: 52.5 µM (inactive)
IGROV-1
  GI50: 35.4 µM (inactive)
K562
  GI50: 63.1 µM (inactive)
KM-20L2
  GI50: > 100 µM (inactive)
KM12
  GI50: > 100 µM (inactive)
LOX IMVI
  GI50: 64.3 µM (inactive)
LXFL 529
  GI50: 69 µM (inactive)
M14
  GI50: > 100 µM (inactive)
MOLT-4
  GI50: 23 µM (inactive)
NCI-H226
  GI50: 3.15 µM (inactive)
NCI-H23
  GI50: > 100 µM (inactive)
NCI-H460
  GI50: > 100 µM (inactive)
OVCAR-3
  GI50: > 100 µM (inactive)
OVCAR-5
  GI50: > 100 µM (inactive)
OVCAR-8
  GI50: 56.4 µM (inactive)
RPMI-8226
  GI50: > 100 µM (inactive)
RXF 393
  GI50: 8.04 µM (inactive)
SF-268
  GI50: 0.426 µM (active)
SF-295
  GI50: > 100 µM (inactive)
SF-539
  GI50: > 100 µM (inactive)
SK-MEL-28
  GI50: > 100 µM (inactive)
SK-MEL-2
  GI50: > 100 µM (inactive)
SN12C
  GI50: > 100 µM (inactive)
SNB-19
  GI50: > 100 µM (inactive)
SNB-75
  GI50: < 0.01 µM (active)
SNB-78
  GI50: > 100 µM (inactive)
SR
  GI50: > 100 µM (inactive)
SW-620
  GI50: > 100 µM (inactive)
TK-10
  GI50: > 100 µM (inactive)
U-251
  GI50: > 100 µM (inactive)
UACC-257
  GI50: > 100 µM (inactive)
UACC-62
  GI50: 39.5 µM (inactive)
UO-31
  GI50: > 100 µM (inactive)
